Among the data in ChEMBL document CHEMBL4616721, “Nitrogen-Walk Approach to Explore Bioisosteric Replacements in a Series of Potent A2B Adenosine Receptor Antagonists” (J Med Chem, 2020) are inhibition, IC50 and Ki values, retold here.

Each structure is given as a SMILES string.

Data set [1] addresses T1, Adenosine receptor A1 (Homo sapiens) (UniProt P30542).
T1 sequence (whole entry): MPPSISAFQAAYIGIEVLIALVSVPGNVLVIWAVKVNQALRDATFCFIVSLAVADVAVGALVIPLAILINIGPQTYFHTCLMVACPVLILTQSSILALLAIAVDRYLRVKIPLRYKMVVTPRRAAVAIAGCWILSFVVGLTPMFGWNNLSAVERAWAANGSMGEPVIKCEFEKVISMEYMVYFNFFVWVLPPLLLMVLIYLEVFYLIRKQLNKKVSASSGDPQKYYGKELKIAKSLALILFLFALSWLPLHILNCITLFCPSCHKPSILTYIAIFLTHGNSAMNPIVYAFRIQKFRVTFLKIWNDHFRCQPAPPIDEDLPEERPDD
Briefly: Displacement [3H]DPCPX from human adenosine A1 receptor expressed in CHO cell membranes at 1 uM incubated for 60 mins by scintillation counting method relative to control.

A further data set concerns the target Adenosine receptor A2a (Homo sapiens, UniProt P29274). Briefly: Displacement [3H]ZM241385 from adenosine A2A receptor in human HeLa cell membranes at 1 uM incubated for 30 mins by scintillation counting method relative to control.
Data set [2] concerns the target T2, Adenosine receptor A3 (Homo sapiens) (UniProt P0DMS8).
T2 sequence (whole entry): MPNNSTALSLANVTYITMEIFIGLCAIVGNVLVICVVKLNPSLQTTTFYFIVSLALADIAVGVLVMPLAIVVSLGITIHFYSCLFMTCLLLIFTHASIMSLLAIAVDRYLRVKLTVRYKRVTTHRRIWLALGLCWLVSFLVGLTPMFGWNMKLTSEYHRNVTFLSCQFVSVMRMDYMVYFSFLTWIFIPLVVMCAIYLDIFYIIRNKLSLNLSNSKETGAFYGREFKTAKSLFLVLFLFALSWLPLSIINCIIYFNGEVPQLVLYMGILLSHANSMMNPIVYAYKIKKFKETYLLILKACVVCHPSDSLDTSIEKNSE
Briefly: Displacement [3H]NECA from adenosine A3 receptor in human HeLa cell membranes at 1 uM incubated for 180 mins by scintillation counting method relative to control.

For data set [3], the target named is T3, CYP2D6 (Homo sapiens, UniProt P10635). Briefly: Inhibition of CYP2D6 (unknown origin) expressed in insect cell microsomes at 10 uM using dibenzylfluorescein substrate by fluorescence based assay relative to control. Type of data set: ADME. Conditions: insect cell microsomes expressing CYP2D6, probe dibenzylfluorescein.
For data set [4], the target named is T3, CYP2D6. Briefly: Inhibition of CYP2D6 (unknown origin) expressed in insect cell microsomes at 1 uM using dibenzylfluorescein substrate by fluorescence based assay relative to control. Conditions: insect cell microsomes expressing CYP2D6, probe dibenzylfluorescein. In kind it is ADME.
Another data set deals with Cytochrome P450 3A4 (Homo sapiens, UniProt P08684). Briefly: Inhibition of CYP3A4 (unknown origin) expressed in insect cell microsomes using dibenzylfluorescein substrate by fluorescence based assay. Type of data set: ADME.
A further data set has as its target T4, Adenosine receptor A2b (Homo sapiens, UniProt P29275).
T4 sequence (P29275 whole entry): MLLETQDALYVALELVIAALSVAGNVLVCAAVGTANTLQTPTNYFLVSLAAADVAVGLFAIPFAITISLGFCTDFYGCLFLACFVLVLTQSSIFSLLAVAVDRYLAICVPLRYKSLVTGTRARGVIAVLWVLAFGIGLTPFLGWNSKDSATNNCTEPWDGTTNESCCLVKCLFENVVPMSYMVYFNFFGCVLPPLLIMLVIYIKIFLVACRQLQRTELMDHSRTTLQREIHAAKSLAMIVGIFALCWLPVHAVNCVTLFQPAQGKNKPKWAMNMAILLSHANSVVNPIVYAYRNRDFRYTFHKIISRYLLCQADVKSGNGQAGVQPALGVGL
Briefly: Displacement [3H]DPCPX from human adenosine A2B receptor expressed in HEK293 cell membranes incubated for 60 mins by scintillation counting method.

T3 sequence (P10635 whole entry): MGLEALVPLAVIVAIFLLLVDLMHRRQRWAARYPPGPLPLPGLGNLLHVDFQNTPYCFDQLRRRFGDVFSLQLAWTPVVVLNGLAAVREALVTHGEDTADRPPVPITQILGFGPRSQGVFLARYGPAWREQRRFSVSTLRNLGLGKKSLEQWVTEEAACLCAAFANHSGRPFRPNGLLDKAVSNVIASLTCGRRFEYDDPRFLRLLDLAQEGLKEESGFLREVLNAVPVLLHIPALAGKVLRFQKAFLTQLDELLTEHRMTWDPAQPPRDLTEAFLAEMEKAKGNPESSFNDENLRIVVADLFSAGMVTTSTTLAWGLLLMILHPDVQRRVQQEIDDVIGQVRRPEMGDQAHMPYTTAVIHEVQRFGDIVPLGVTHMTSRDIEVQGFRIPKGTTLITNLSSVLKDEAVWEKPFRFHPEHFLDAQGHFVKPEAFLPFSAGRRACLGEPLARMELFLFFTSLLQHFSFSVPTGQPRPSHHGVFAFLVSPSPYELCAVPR
Adenosine receptor A2a, sequence (P29274 whole entry): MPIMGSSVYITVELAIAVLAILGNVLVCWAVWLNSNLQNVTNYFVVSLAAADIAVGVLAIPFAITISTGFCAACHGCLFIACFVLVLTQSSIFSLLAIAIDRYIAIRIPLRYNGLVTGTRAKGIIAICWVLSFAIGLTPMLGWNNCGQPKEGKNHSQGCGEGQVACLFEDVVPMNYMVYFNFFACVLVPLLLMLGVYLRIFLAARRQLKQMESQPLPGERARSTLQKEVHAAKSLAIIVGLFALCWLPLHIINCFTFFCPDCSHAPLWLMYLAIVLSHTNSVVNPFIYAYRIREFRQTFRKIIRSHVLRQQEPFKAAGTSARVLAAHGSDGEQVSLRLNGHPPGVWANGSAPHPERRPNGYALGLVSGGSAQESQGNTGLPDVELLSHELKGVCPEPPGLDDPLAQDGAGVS
Cytochrome P450 3A4, sequence (P08684 whole entry): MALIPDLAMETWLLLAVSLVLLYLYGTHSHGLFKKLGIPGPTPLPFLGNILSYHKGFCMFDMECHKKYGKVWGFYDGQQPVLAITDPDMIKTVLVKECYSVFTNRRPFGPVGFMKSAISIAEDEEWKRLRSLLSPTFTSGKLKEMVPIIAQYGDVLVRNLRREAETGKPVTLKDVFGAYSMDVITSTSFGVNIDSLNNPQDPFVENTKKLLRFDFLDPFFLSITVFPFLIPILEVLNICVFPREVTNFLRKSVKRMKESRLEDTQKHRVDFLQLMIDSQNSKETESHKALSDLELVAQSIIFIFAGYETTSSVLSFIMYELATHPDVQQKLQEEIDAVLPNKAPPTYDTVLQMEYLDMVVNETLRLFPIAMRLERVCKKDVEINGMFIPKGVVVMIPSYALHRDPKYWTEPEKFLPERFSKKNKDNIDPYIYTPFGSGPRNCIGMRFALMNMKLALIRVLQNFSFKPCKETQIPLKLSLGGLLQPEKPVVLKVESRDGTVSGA

Take `CCOC(=O)C1=C(C)Nc2nc3ccccc3n2C1c1c[nH]cn1` (racemic): the figures for the inhibition (in data set [1]; at Adenosine receptor A2a; in data set [2]) were 7%, 16% and 3%, respectively.

Take `CCOC(=O)C1=C(C)Nc2nc3ccccc3n2C1c1cnoc1` (racemic): the inhibition at 10 µM against CYP2D6 [3] was 37%. Besides, the results for the inhibition (in data set [1]; at Adenosine receptor A2a; in data set [2]) were 21%, 30% and 13%, respectively. This molecule registered an inhibition at 1 µM against CYP2D6 [4] of 6%. At Cytochrome P450 3A4, this molecule registered an IC50 of 4.92 µM. Moreover, the affinity on Adenosine receptor A2b, expressed as Ki, was 23.4 nM.

Regarding `CCOC(=O)C1=C(C)Nc2nc3ccccc3n2C1c1ccc[nH]1` (racemic), the results for the inhibition (in data set [1]; on Adenosine receptor A2a; in data set [2]) were 45%, 2% and 9%, respectively. The same molecule displayed a Ki on Adenosine receptor A2b of 49.6 nM.

On to `CCOC(=O)C1=C(C)Nc2nc3ccccc3n2C1c1ccccc1` (racemic), for which the inhibition stood at 12% in data set [1], 9% on Adenosine receptor A2a and 15% in data set [2].

Consider `CC1=C(C(=O)OC(C)C)C(c2c[nH]cn2)n2c(nc3ccccc32)N1` (racemic), for which the inhibition in data set [1] amounted to 5%; on Adenosine receptor A2a, 4%; in data set [2] it was 8%.

With `CC1=C(C(=O)OC(C)C)Cn2c(nc3ccccc32)N1`, the inhibition in data set [1] turned out to be 31%; at Adenosine receptor A2a it was 4%; in data set [2], 13%.

On to `CC1=C(C(=O)OC(C)C)C(c2ccccc2)n2c(nc3ccccc32)N1` (racemic), for which the inhibition in data set [1] came to 9%; on Adenosine receptor A2a it was 3%; in data set [2] it was 9%.

As to `CC1=C(C(=O)OC(C)C)C(C2CCCC2)n2c(nc3ccccc32)N1` (racemic), the inhibition in data set [1] is 14%; on Adenosine receptor A2a, 2%; in data set [2], 23%.

Turning to `CC1=C(C(=O)OC(C)C)C(c2ncc[nH]2)n2c(nc3ccccc32)N1` (racemic), the inhibition in data set [1] was 2%; at Adenosine receptor A2a it was 4%; in data set [2], 2%.

For the molecule `CC1=C(C(=O)OC(C)C)C(c2cscn2)n2c(nc3ccccc32)N1` (racemic), the inhibition in data set [1] was found to be 1%; on Adenosine receptor A2a, 3%; in data set [2], 18%.

In the case of `CC1=C(C(=O)OC(C)C)C(c2cnoc2)n2c(nc3ccccc32)N1` (racemic), the inhibition in data set [1] came out at 1%; at Adenosine receptor A2a it was 2%; in data set [2], 5%. The same molecule gave an inhibitory constant (Ki) on Adenosine receptor A2b of 29.6 nM.

For `CC1=C(C(=O)OC(C)C)C(c2ccns2)n2c(nc3ccccc32)N1` (racemic), the inhibition in data set [1] amounted to 24%; on Adenosine receptor A2a, 18%; in data set [2], 4%. For the same molecule, on Adenosine receptor A2b, the affinity, expressed as Ki, was 175 nM.

For `CC1=C(C(=O)OC(C)C)C(c2cc[nH]n2)n2c(nc3ccccc32)N1` (racemic), the inhibition was 1% in data set [1], 7% on Adenosine receptor A2a and 2% in data set [2]. For the same molecule, the affinity on Adenosine receptor A2b, expressed as Ki, was 1100 nM.

In the case of `CC1=C(C(=O)OC(C)C)C(c2ccoc2)n2c(nc3ccccc32)N1` (racemic), the inhibition at 10 µM on CYP2D6 [3] was 31%. This molecule also registered an inhibition at Adenosine receptor A2a of 22%. The inhibition at 1 µM against CYP2D6 [4] amounted to 8%. The molecule also displayed an IC50 against Cytochrome P450 3A4 of 2.68 µM.

Consider `CC1=C(C(=O)OC(C)C)C(c2ccc[nH]2)n2c(nc3ccccc32)N1` (racemic), for which the inhibition is 38% in data set [1], 19% on Adenosine receptor A2a and 1% in data set [2]. At Adenosine receptor A2b, the affinity corresponds to a Ki of 31.3 nM.

As for `CCOC(=O)C1=C(C)Nc2nc3ccccc3n2C1c1cc[nH]n1` (racemic), the inhibition in data set [1] stood at 8%; on Adenosine receptor A2a, 11%; in data set [2] it was 1%. On Adenosine receptor A2b, this molecule came in with a Ki of 707 nM.

As for `CC1=C(C(=O)OC(C)C)C(c2cnsc2)n2c(nc3ccccc32)N1` (racemic), the values for the inhibition (in data set [1]; at Adenosine receptor A2a; in data set [2]) were 9%, 11% and 14%, respectively. The same molecule showed a Ki at Adenosine receptor A2b of 278 nM.

Turning to `CCOC(=O)C1=C(C)Nc2nc3ccccc3n2C1c1cc[nH]c1` (racemic), the inhibition in data set [1] was found to be 26%; on Adenosine receptor A2a, 7%; in data set [2], 1%. At Adenosine receptor A2b, this molecule came in with an inhibition constant Ki of 449 nM.

On CYP2D6 [3], `CC1=C(C(=O)OC(C)C)C(c2cocn2)n2c(nc3ccccc32)N1` (racemic) gave an inhibition at 10 µM of 43%. In addition, the inhibition in data set [1] stood at 7%; at Adenosine receptor A2a, 19%; in data set [2] it was 16%. At CYP2D6 [4], this molecule displayed an inhibition at 1 µM of 23%. On Cytochrome P450 3A4, this molecule came in with an IC50 of 5.92 µM. The same molecule showed a Ki at Adenosine receptor A2b of 43.4 nM.

With `CC1=C(C(=O)OC(C)C)C(c2ccno2)n2c(nc3ccccc32)N1` (racemic), the inhibition is 37% in data set [1], 7% at Adenosine receptor A2a and 1% in data set [2]. At Adenosine receptor A2b, the Ki was determined as 1030 nM.

`CCOC(=O)C1=C(C)Nc2nc3ccccc3n2C1c1ccc(C)o1` (racemic): the inhibition in data set [1] is 14%; at Adenosine receptor A2a it was 1%; in data set [2], 3%.

With `CCOC(=O)C1=C(C)Nc2nc3ccccc3n2C1c1cnsc1` (racemic), the inhibition in data set [1] came to 20%; at Adenosine receptor A2a, 11%; in data set [2], 14%.

On to `CCOC(=O)C1=C(C)Nc2nc3ccccc3n2C1c1ccon1` (racemic), for which the inhibition in data set [1] came out at 2%; on Adenosine receptor A2a, 1%; in data set [2], 3%. This molecule also had a Ki at Adenosine receptor A2b of 789 nM.

For the molecule `CCOC(=O)C1=C(C)Nc2nc3ccccc3n2C1c1cncs1` (racemic), the inhibition in data set [1] was determined as 32%; on Adenosine receptor A2a it was 1%; in data set [2] it was 1%. Besides, at Adenosine receptor A2b, the affinity, expressed as Ki, was 215 nM.

`CCOC(=O)C1=C(C)Nc2nc3ccccc3n2C1c1cscn1` (racemic): the inhibition in data set [1] stood at 1%; on Adenosine receptor A2a it was 1%; in data set [2] it was 2%.

For `CCOC(=O)C1=C(C)Nc2nc3ccccc3n2C1C1CCCC1` (racemic), the inhibition worked out at 11% in data set [1], 10% at Adenosine receptor A2a and 17% in data set [2].

In the case of `CC1=C(C(=O)OC(C)C)C(c2ccc(C)o2)n2c(nc3ccccc32)N1` (racemic), the figures for the inhibition (in data set [1]; at Adenosine receptor A2a; in data set [2]) were 14%, 3% and 1%, respectively.

In the case of `CCOC(=O)C1=C(C)Nc2nc3ccccc3n2C1c1ccno1` (racemic), the inhibition in data set [1] turned out to be 1%; on Adenosine receptor A2a, 1%; in data set [2], 11%. On Adenosine receptor A2b, this molecule registered a Ki of 714 nM.

With `CC1=C(C(=O)OC(C)C)C(c2ccon2)n2c(nc3ccccc32)N1` (racemic), the inhibition was determined as 1% in data set [1], 2% at Adenosine receptor A2a and 4% in data set [2]. The molecule further yielded a Ki at Adenosine receptor A2b of 721 nM.

For the molecule `CC1=C(C(=O)OC(C)C)C(c2cncs2)n2c(nc3ccccc32)N1` (racemic), the inhibition was found to be 2% in data set [1], 3% at Adenosine receptor A2a and 5% in data set [2]. This molecule also showed a Ki at Adenosine receptor A2b of 68.3 nM.

Take `CC1=C(C(=O)OC(C)C)C(c2cc[nH]c2)n2c(nc3ccccc32)N1` (racemic): the inhibition in data set [1] is 19%; on Adenosine receptor A2a it was 1%; in data set [2] it was 2%. On Adenosine receptor A2b, this molecule had a Ki of 517 nM.

With `CCOC(=O)C1=C(C)Nc2nc3ccccc3n2C1`, the inhibition worked out at 34% in data set [1], 11% on Adenosine receptor A2a and 9% in data set [2].

`CC1=C(C(=O)OC(C)C)C(c2nccs2)n2c(nc3ccccc32)N1` (racemic): the inhibition in data set [1] was 5%; on Adenosine receptor A2a, 4%; in data set [2] it was 20%. This molecule also displayed a Ki on Adenosine receptor A2b of 753 nM.

As for `CC1=C(C(=O)OC(C)C)C(c2ccco2)n2c(nc3ccccc32)N1` (racemic), on CYP2D6 [3], 10 µM produced 35% inhibition. On Adenosine receptor A2a, the inhibition was 25%. Besides, the inhibition at 1 µM against CYP2D6 [4] came out at 5%. Further, on Cytochrome P450 3A4, the 50% inhibitory concentration (IC50) was found to be 2.9 µM.
